Consider three compounds from patent US20190167593A1, “C[…] PHARMACEUTICALLY ACCEPTABLE SALT THEREOF, AND APPLICATION OF SAME” (priority 2016, published 2019).

For test [1], the system named is NAI drug-resistant mutant stain H274Y-PR8 virus. Further details: species or system BALB/c mice. Particulars: mouse, in vivo.
The next test relates to H274Y virus. The class given is cell-based. The settings on record: read-out: IC50 against influenza virus replication (plaque formation), H274Y.
Test [2] has as its system H274Y mutant influenza virus. Particulars: background statement; cited from earlier work.

Several values for one entry are separate records, joined by “and”; a condition that tells them apart may be missing. Identical values can stand only once. Entries after “also recorded” stand apart in the source; their conditions may differ.

As a reminder, the IC50 is the concentration needed to halve the response being measured. Consider `CCCCS(=O)(=O)N[C@@H]1CCCN([C@@H]2C=C(C(=O)O)C[C@H](NC(=N)N)[C@H]2NC(C)=O)C1` [(3R,4R,5S)-4-acetamido-5-guanidino-3-((3R)-3-n-butylsulfonamidopiperidin)-1-cyclohexene-1-carboxylic acid], for which, in test [1], the body weight result is “basically the same as that of the uninfected control mice; also recorded: decreased significantly”, the disease symptoms result was “no symptoms of any diseases” and the mortality rate was 20%. The IC50 with H274Y virus was 0.13 µM and 0.131 µM.
As to `CCOC(=O)C1=C[C@@H](OC(CC)CC)[C@H](NC(C)=O)[C@@H](N)C1.O=P(O)(O)O` [Oseltamivir phosphate, ethyl (3R, 4R, 5S)-4-acetamido-5-amino-3-(1-ethylpropoxy)-1-cyclohexene-1-carboxylate phosphate], in test [1], the disease symptoms result is “obvious disease symptoms” and the mortality rate came to 40%. Moreover, the “decrease of activity due to the resistance caused by the mutation of H274Y” value in test [2] is “more than 300 times”. Moreover, in the test with H274Y virus, the IC50 is 15 µM.
As to Peramivir, in test [1], the body weight result is recorded as “significant weight decline”, the body weight decrease entry is reported as “about 6%”, the disease symptoms result is listed as “mild disease symptoms; also recorded: obvious disease symbols” and the mortality rate is listed as 60%. In addition, the IC50 with H274Y virus is 0.643 µM.
